Assays:
corneas = experiment: Staining of corneas for 15 minutes and fluorescence microscopy imaging after storage of the stain; format: cell-based
Method: Calcein AM (2.5 μg/mL) was prepared with 1.7% sodium hyaluronic acid in a balanced salt solution. Three corneas were stained for 15 minutes and imaged under the same conditions. The cornea shown in FIG. 1A was stained with the mixture immediately after preparation. The cornea shown in FIG. 1B was stained with the mixture after the mixture had been stored frozen for 5 days. The cornea shown in FIG. 1C was stained with the mixture after the mixture had been stored frozen for 3 months.
Calcein-AM (2.5 μg/mL) was prepared according to manufacturer's recommendations. All corneas were stained for 15 minutes and imaged under the same conditions.

[1] = stored over night at 4° C., or frozen and thawed; cited from earlier work
[2] = in water and alcohol; cited from earlier work

calcein AM
fluorescence signal with storage time (corneas; stored under 4° C. refrigeration, protected from light, overnight, five days, one month, three months, FIGS. 2B-2E): loses intensity with the storage time length | fluorescence signal after storage (corneas; three months' storage under 4° C. refrigeration, FIG. 2E): completely lost | functionality after storage [1]: lose functionality | solubility [2]: only slightly soluble
